Values quoted from earlier work in patent US11491171B2, “Synthetic composition and method for modulating emotion and mood disorders” (GLYCOM A/S, priority 2015, dated 2022).

System: mice

Molecule	behavioural responses during stressor exposure
CC(=O)N[C@H]1[C@H]([C@H](O)[C@H](O)CO)O[C@@](O[C@H]2[C@@H](O)[C@@H](CO)O[C@@H](O[C@H]3[C@H](O)[C@@H](O)C(O)O[C@@H]3CO)[C@@H]2O)(C(=O)O)C[C@@H]1O (some centres unmarked) [3′-SL, 3′-O-sialyllactose]	support normal behavioural responses
6′-O-sialyllactose [6′-SL]	support normal behavioural responses
